According to the NIST ThermoML archive (doi:10.1016/j.jct.2019.03.014):

Key:
[1] = Ring tensiometer
[2] = xn = mol fraction of the nth substance listed; conditions: Ring tensiometer

CCCCO [butan-1-ol]
[1]
Conditions	surface tension liquid-gas [mN/m]
293.2 K	24.7
303.2 K	23.8
313.2 K	22.8
323.2 K	21.6
333.2 K	20.3

CCCCO [butan-1-ol] + OCC(O)CO
[2], x1 = 1
Conditions	surface tension liquid-gas [mN/m]
293.2 K	24.7
303.2 K	23.8
313.2 K	22.8
323.2 K	21.6
333.2 K	20.3

CCO [ethanol]
[1]
Conditions	surface tension liquid-gas [mN/m]
293.2 K	22.3
303.2 K	21.4
313.2 K	20.6
323.2 K	19.8
333.2 K	19

CCO [ethanol] + OCC(O)CO
[2], x1 = 1
Conditions	surface tension liquid-gas [mN/m]
293.2 K	22.3
303.2 K	21.4
313.2 K	20.6
323.2 K	19.8
333.2 K	19

OCC(O)CO [glycerol]
[1]
Conditions	surface tension liquid-gas [mN/m]
293.2 K	63.1
298.2 K	62.9
303.2 K	62.4
313.2 K	62
323.2 K	61.1
333.2 K	60.5

OCC(O)CO [glycerol] + CC(C)O
surface tension liquid-gas [mN/m], [2]
Conditions	x2 = 0	x2 = 0.1	x2 = 0.2	x2 = 0.3	x2 = 0.4	x2 = 0.5	x2 = 0.6	x2 = 0.7	x2 = 0.8	x2 = 0.9
293.2 K	63.1	45.7	34.3	28.8	26.7	25.6	24.8	23.9	22.8	21.9
303.2 K	62.4	45.1	34	28.5	26.2	25.1	24.2	23.4	22.3	21.4
313.2 K	62	44.4	33.6	28	25.8	24.6	23.7	23	21.8	20.9
323.2 K	61.1	43.9	32.9	27.6	25.5	24.1	23.5	22.5	21.2	20
333.2 K	60.5	43.2	32.2	27.2	25	23.7	22.6	22.1	20.6	19.1

OCC(O)CO [glycerol] + CCCCO
surface tension liquid-gas [mN/m], [2]
Conditions	x2 = 0	x2 = 0.1	x2 = 0.2	x2 = 0.3	x2 = 0.4	x2 = 0.5	x2 = 0.6	x2 = 0.7	x2 = 0.8	x2 = 0.9
293.2 K	63.1	33.1	28	26.4	26.2	25.9	25.7	25.4	25.2	24.8
303.2 K	62.4	32.9	27.7	26.2	26	25.7	25.4	25.1	24.8	24.3
313.2 K	62	32.8	27.3	26.1	25.8	25.5	25.1	24.8	24.5	23.7
323.2 K	61.1	32.7	27	25.6	25.2	24.7	24.3	24	23.7	22.7
333.2 K	60.5	32.5	26.7	25.3	24.8	24.3	23.7	23.2	22.9	21.6

OCC(O)CO [glycerol] + CCCO
surface tension liquid-gas [mN/m], [2]
Conditions	x2 = 0	x2 = 0.1	x2 = 0.2	x2 = 0.3	x2 = 0.4	x2 = 0.5	x2 = 0.6	x2 = 0.7	x2 = 0.8	x2 = 0.9
293.2 K	63.1	41.8	33.4	30.1	28.3	27.3	26.5	26	25.3	24.7
303.2 K	62.4	41.5	33.1	29.7	27.9	26.9	26.1	25.5	24.8	24.1
313.2 K	62	41.2	32.8	29.3	27.7	26.4	25.7	25	24.2	23.3
323.2 K	61.1	40.9	32.5	28.9	27.2	26	25.3	24.5	23.6	22.5
333.2 K	60.5	40.5	32.2	28.5	26.6	25.6	25	24	23	21.6

OCC(O)CO [glycerol] + CCO
surface tension liquid-gas [mN/m], [2]
Conditions	x2 = 0	x2 = 0.1	x2 = 0.2	x2 = 0.3	x2 = 0.4	x2 = 0.5	x2 = 0.6	x2 = 0.7	x2 = 0.8	x2 = 0.9
293.2 K	63.1	52.9	41.7	36.1	31.9	29	27.5	26.2	24.9	23.7
303.2 K	62.4	52.4	41.4	35.9	31.6	28.5	27.1	25.4	24.2	23.2
313.2 K	62	52	41.1	35.7	31.2	27.9	26.7	24.5	23.5	22.6
323.2 K	61.1	51.5	40.7	35.4	30.9	27.7	26.3	23.6	22.8	22
333.2 K	60.5	51.1	40.5	35	30.6	27.2	25.9	22.7	22.1	21.2

CCCO [propan-1-ol]
[1]
Conditions	surface tension liquid-gas [mN/m]
293.2 K	23.7
303.2 K	22.9
313.2 K	22.1
323.2 K	21.3
333.2 K	20.6

CCCO [propan-1-ol] + OCC(O)CO
[2], x1 = 1
Conditions	surface tension liquid-gas [mN/m]
293.2 K	23.7
303.2 K	22.9
313.2 K	22.1
323.2 K	21.3
333.2 K	20.6

CC(C)O [propan-2-ol]
[1]
Conditions	surface tension liquid-gas [mN/m]
293.2 K	21.4
303.2 K	20.7
313.2 K	19.7
323.2 K	18.7
333.2 K	17.6

CC(C)O [propan-2-ol] + OCC(O)CO
[2], x1 = 1
Conditions	surface tension liquid-gas [mN/m]
293.2 K	21.4
303.2 K	20.7
313.2 K	19.7
323.2 K	18.7
333.2 K	17.6
